This is an account of results in US20240216412A1, “OXIDIZED NICOTINAMIDE ADENINE DINUCLEOTIDE (NAD+) PRECURSOR TREATMENT FOR HEART FAILURE ALLEVIATION INDEPENDENT OF MITOCHONDRIAL PROTEIN DEACETYLATION” (University of Washington, priority 2022, published 2024).

Common to all, as to format: in vivo, mouse
Assay [1] deals with mitochondrial protein acetylation; Mrpp2, mt-Cox1, mt-Nd1 protein levels. Nature of the assay: Western blot of cardiac mitochondrial protein acetylation and of Mrpp2, mt-Cox1, mt-Nd1. As to the method:
Western blot. For Western blot procedures cardiac tissues were homogenized with RIPA buffer (ThermoScientific Pierce RIPA Buffer #89900) and protease inhibitors (Roche Cat. No. 11-836-170-001) using bullet blender at 4° C. for 10 minutes. Protein concentrations of supernatants were collected after centrifugation and quantified using Pierce™ BCA® Protein Assay Kits and Reagents (#23225). Protein lysates in Lammeli sample buffer were loaded to 10% SDS-PAGE, transferred to PVDF membrane and blocked with 5% BSA in TSBT. Specific proteins were detected by specific antibodies listed above and corresponding secondary antibodies. Signals were visualized by HRP derived chemiluminescence (Amersham ECL Western Blotting Detection System #RPN2106) and film. Protein levels were quantified by Image-J.
Mitochondrial Isolation from cardiac tissue. Hearts were excised from mice, the aortas and atria were removed. Heart tissues were rinsed briefly in ice-cold mitochondria isolation medium (MIM) (70 mM sucrose, 220 mM mannitol, 5 mM MOPS, 1 mM EDTA, 0.025% fatty acid-free BSA, pH 7.4 with 5M KOH) to remove residual blood. Tissues were minced on ice and resuspended in fresh MIM, followed by trypsin digestion (10 ug/ml) and incubated on ice for 10 min. Trypsin digestion was stopped by the addition of trypsin inhibitor (0.5 mg/ml) and additional BSA (1 mg/ml) to MIM. The tissue pellets were resuspended in fresh MIM containing 1 mg/ml BSA, and transferred to a Teflon-glass tube and homogenized on ice with a Teflon pestle. The homogenates were centrifuged for 10 min at 800×g at 4° C. The supernatants were collected and centrifuged for 10 min at 8,000×g at 4° C. The supernatant was discarded and the mitochondrial pellets were resuspended in MIM to wash. The resuspension was centrifuged for 10 min at 8,000×g at 4° C., and the supernatant discarded. The mitochondrial pellet was resuspended to a concentrated volume for protein quantification by BCA Assay (Pierce).
Antibodies. Acetylated lysine antibody (Cell Signaling 9441s), Mrpp2 (Hsd17b10, ERAB) from Proteintech catalog number 10648-1-AP, Mrrp1 (Trmt10c) from Proteintech catalog number 29087-1-AP, Mt-C01 from Abcam [1D6E1A8] (ab14705), and Mt-Nd1 from Santa Cruz (C-18) catalog sc-20493, RXRα (Cell Signaling D6H10) Rabbit mAb, SirT3 (Cell Signaling D22A3) Rabbit mAb, ATP5B (E-1) Santa Cruz Biotechnology sc-55597.

For assay [2], the system named is NAD(H) levels in hearts and livers. Nature of the assay: Heart and liver NAD+/NADH after oral or IP NR administration (Experimental Example 2). The procedure:
Mice 2-4 months old were used, weighing 25 to 27 g, with water intake ranging from 3.5 to 6.5 ml/day. To each mouse, either NR as an NAD precursor was administered daily or vehicle was administered daily, for up to 10 days, either by IP injection or orally by drinking water. Saline was used as vehicle for IP injection. For oral administration, vehicle was unmodified drinking water. NR was supplied substantially as in Experimental Example 1. For IP administration, NR was diluted in sterile, pharmaceutical-grade isotonic saline at concentrations based on weight-based dosing per subject to provide respective 500 mg/kg body weight daily doses as administrated by IP injection. Additionally, for oral administration, NR was dissolved in sterile filtered water at concentrations based on weight-based dosing per subject to provide respective 400 mg/kg body weight daily doses, provided for drinking adlibitum. […] Over the first several days of oral administration of NR solutions, the consumption of NR water was monitored daily to verify that mice are not finding the NR water unpalatable and becoming dehydrated. […] NAD^+ and NADH were determined in approximately 6 mg heart tissue and approximately 6 mg liver tissue using BioAssay Systems EnzyChrom NAD^+/NAD Assay Kit ([…]-100) per manufactures instructions.

In the next assay the test system is Mrpp2. Nature of the assay: Mrpp2 dehydrogenase activity in heart homogenates. The following applies: NR treated failing (TAC) hearts, matching sham operated controls. The procedure:
Enzyme Activities. Citrate synthase (CS), Complex I (CI) and Cytochrome C Oxidase (CIV), and Mrpp2 dehydrogenase activities were determined in heart tissue homogenates at 30° C. using a protocol adapted from previously published methods (Spinazzi et al., 2012). Briefly, for CS activity frozen cardiac tissue (25 mg) was homogenized at 4° C. in CelLytic™ MT Cell Lysis Reagent (C3228) and then incubated on ice for 30 minutes. The samples were then centrifuged at 10,000×g for 10 minutes at 4° C. and protein concentration determined. CS activity was analyzed in 100 mM Tris buffer containing 0.1% Triton X-100, pH 8.0 as previously described (Spinazzi et al., 2012). […] CIV activity was analyzed in 100 mM potassium phosphate buffer as previously described (Spinazzi et al., 2012). […] Cl activity was analyzed in 100 mM potassium phosphate buffer as previously described (Spinazzi et al., 2012). In parallel, a separate reactions containing the same quantity of reagents and sample but with the addition of 10 μl of 1 mM rotenone solution. The reactions were started by adding 6 μl of ubiquinone (10 mM), mix and follow the decrease of absorbance at 340 nm for 2 min. The dehydrogenase activity of Mrpp2 was measured as described (Falk et al., 2016) in the reverse direction for reduction of acetoacetyl-CoA (30 mM) to L-3-hydroxyacyl-CoA. The reaction was monitored as the decrease of absorbance at 340 nm.

SMILES strings stand for the structures.

Turning to `NC(=O)c1ccc[n+]([C@@H]2O[C@H](CO)[C@@H](O)[C@H]2O)c1` [NR, Nicotinamide riboside chloride], the Mitochondrial protein acetylation entry in assay [1] (NR treated Sirt3Ko mice) is reported as “no change”. For the same molecule, the Mrpp2 protein level entry in assay [1] (NR treated TAC hearts) is given as “normalization”. For the same molecule, the “Protein levels of mt-Cox1 and mt-Nd1” value in assay [1] (TAC hearts that received NR) is given as “preserved”. Further, in assay [1] (WT control mice after TAC), the Mitochondrial protein hyperacetylation result is reported as “reversed the protein hyperacetylation”. Moreover, the “Increase of NAD(H) in hearts and livers, IP injection over oral administration” value in assay [2] (IP 500 mg/kg daily 10 days vs oral 400 mg/kg daily 3 or 7 days) is reported as “greater increases”. Also, in assay [2] (oral 400 mg/kg daily 3 or 7 days, IP 500 mg/kg daily 10 days), the “Levels of NAD(H) in hearts and livers” value was “increased”. The “Increase in Mrpp2 dehydrogenase activity” value with Mrpp2 is roughly 2 fold.
